This assay has as its target 5-hydroxytryptamine receptor 3A (Rattus norvegicus) (UniProt P35563). Briefly: The compound was tested for binding affinity against 5-hydroxytryptamine 3 receptor.

Structures are written as SMILES.

5-hydroxytryptamine receptor 3A (Rattus norvegicus), sequence (P35563 whole entry, looked up): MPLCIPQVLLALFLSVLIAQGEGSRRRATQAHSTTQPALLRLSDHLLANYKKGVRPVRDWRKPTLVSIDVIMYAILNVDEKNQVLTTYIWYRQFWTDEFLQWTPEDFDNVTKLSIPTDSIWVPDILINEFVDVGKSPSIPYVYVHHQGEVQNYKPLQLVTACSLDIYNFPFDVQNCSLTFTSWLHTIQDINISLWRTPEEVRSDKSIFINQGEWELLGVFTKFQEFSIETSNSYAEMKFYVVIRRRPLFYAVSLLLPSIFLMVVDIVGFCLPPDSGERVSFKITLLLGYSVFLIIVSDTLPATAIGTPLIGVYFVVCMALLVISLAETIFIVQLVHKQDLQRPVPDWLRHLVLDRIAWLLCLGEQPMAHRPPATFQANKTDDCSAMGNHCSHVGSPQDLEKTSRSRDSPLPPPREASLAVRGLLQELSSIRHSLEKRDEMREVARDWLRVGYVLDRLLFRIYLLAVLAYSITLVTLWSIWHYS

As usually defined, the Ki is the equilibrium dissociation constant of an inhibitor or competing ligand from its target. A high value points to a looser hold on the target. As to `COc1ccccc1N1CCC(CNCC2COc3ccc(Cl)cc3O2)CC1` (stereo unspecified), the Ki was above 1000 nM.

(Values after ChEMBL document CHEMBL1132360, “N-Substituted (2,3-dihydro-1,4-benzodioxin-2-yl)methylamine derivatives as D(2) antagonists/5-HT(1A) partial agonists with potential as atypical antipsychotic agents” (J Med Chem, 1999).)
